“And” between values parts separate entries of the source, which are not always exact repeats. Identical values can stand only once.
Experiments:
CDKs = experiment: Kinase panel, CDKs (average/range); type: biochemical; details: comparison drug; read-out: average IC50 for CDK1, CDK2, and CDK4
HT29 = experiment: SRB cytotoxicity, HT29 parental cells; type: cell-based; details: Homo sapiens, HT-29, 72 h
Procedure: (§1) In these experiments, the P-glycoprotein expressing NCI-Adr resistant subline (Vickers et al., 1989. Mol Endocrinology 3 (1):157-164) was used. […] Briefly, cells were plated in 96 well dishes 24 hours prior to compound addition. Where noted, they were exposed to verapamil for 4 hours prior to compound addition and then throughout the treatment period (72 hours). The assay was terminated with the addition of cold TCA to a final concentration of 10% and the plates were incubated for one hour at 4° C. The plates were then washed 5 times with water and 100 μl of a Sulforhodamine B solution (4%) was added to each well. The plate was then incubated for 10 minutes at room temperature before removal of unbound dye by washing with 1% acetic acid.
(§2) The parental non-mutated cell line HT29 was used as a control.
(§3) Z. Cytotoxicity was measured using the SRB assay according to Shekan et al. as described above in Example 1A.

HT29/mit = experiment: SRB cytotoxicity, mitoxanthrone resistant cells; type: cell-based, human
Procedure: as §1, with “acid. The bound dye was solubilized with 10 mM Trizma base and the absorbance read at OD570.” for “acid.”
as §2, §3

[1] = target: protein kinase C (mixed isozymes); experiment: Protein kinase C TCA precipitation assay; type: biochemical, rat; details: Table 3; read-out: PKC IC50
Procedure: Enzymes: Cdc2/cyclin B was obtained from commercial sources. Cdk2/his-cyclin Eshort was expressed in Sf9 cells. Cdk2/cyclin A, cdk4/cyclin D1, and cdk6/cyclin D2 were expressed in Sf9 cells. Protein kinase A (catalytic subunit, from bovine heart) and protein kinase C (mixed isozymes from rat brain) were obtained from commercial sources.
Protein kinase C and protein kinase A were assayed using a TCA precipitation assay with Histone H1 as a substrate. For protein kinase A, the final assay contained 50 mM Tris, 10 mM MgCl2, 1 mM dithiothreitol, pH 7.5, 12 μM adenosine triphosphate, 10% (v/v) dimethylsulfoxide (from compounds), 20 μg Histone H1, 2 μCi [γ-^32P] adenosine triphosphate, 0.2 U protein kinase A in a 100 μL assay. A protein kinase C assay contained 50 mM Tris, 10 mM MgCl2, 1 mM dithiothreitol, 0.8 mM CaCl2, pH 7.5, 5 μM adenosine triphosphate, 10% (v/v) dimethylsulfoxide (from compounds), 20 μg Histone H1, 2 μCi [γ-^32P] adenosine triphosphate, 0.01 U protein kinase C in a 50 μL assay. The assays were started by the addition of enzyme, allowed to react for 10 min at 30° C., and stopped by adding 0.4 volumes of 237 mM disodium ethylenediamine tetraacetate, 105 mM adenosine triphosphate, pH 8.0. […] The filters were washed ten times with 25% (w/v) trichloroacetic acid, and the amount of incorporated [^32P]phosphate was determined by adding 100 μl Microscint and scintillation counting.

[2] = tested on: NCI panel of 60 cell lines; experiment: cells; details: Homo sapiens, 60 cell, 48 h, read-out: NCI panel MG-MID (Mean-Graph Mid-point, average IC50 over panel), 48 h, SRB; IC50 <10 nM counted as 10 nM
Source text: (§4) The evaluation of compounds at the National Cancer Institute in their panel of 60 cell lines provides a wealth of information regarding efficacy in a wide range of tumor types and genetic backgrounds. Included within this panel are cell lines derived from leukemia, melanoma and cancers of the lung, colon, brain, ovary, breast, prostate and kidney. Use of this panel provides a measure of the efficacy of compounds in cells with alterations in many genes that are associated with neoplastic transformation including p53 and Her2/Neu as well as those involved in metabolism and those which confer multi-drug resistance. The data generated in these cell lines with the protocol described below can be used to evaluate the activity of compounds.
(§5) Cells were grown in RPMI-1640 10% FCS and plated in 96 well micro-titer plates at densities ranging from 5,000 to 40,000 cells/well. The plates were incubated for 24 hours at 37° C., 5% CO2 for 24 hours. Media containing twice the desired final concentration of the compound (5 doses spanning 4 logs) was prepared and 100 μl was added to each well containing 100 μl media plus cells to yield the desired final concentration. The plates were then incubated for an additional 48 hours.
(§6) The effect of the compound on cellular viability was determined with the Sulforhodamine B (SRB) assay, which measures total protein. Cells were fixed with cold TCA to a final concentration of 10% and incubated at 4° C. for 60 minutes. The supernatant was discarded and the plates were washed five times with water and air-dried. SRB solution at […] in 1% acetic acid was added to each well and the plates were incubated for 10 minutes at room temperature. The plates were washed five times with 1% acetic acid and air-dried. The bound stain was solubilized with 10 mM trizma base and the absorbance was read on a plate reader at […].

[3] = tested on: normal human fibroblast, IMR90; experiment: Calcein AM viability assay, IMR90; type: cell-based; details: IMR-90, Calcein AM, 72 h
Procedure: (§7) The potency of the subject kinase inhibitors, as measured by loss of cellular viability, was determined with the Calcein AM assay (Molecular Probes). Calcein AM is a substrate of intracellular esterases, which is cleaved only in viable cells to generate a fluorescent product that can be quantified with a fluorescent plate reader. The fluorescent signal is proportional to the number of viable cells, and thus loss of signal in response to the exposure of cells to the subject kinase inhibitors correlates with a loss of viability. This assay not only distinguishes cell cycle arrest, in which cells may still by viable, from loss of viability, and is thus well suited for the evaluation of the subject kinase inhibitors. A compound that is a potent cytotoxic agent may cause significant loss of cell viability in such an assay.
(§8) Cellular IC50's were determined in the human colorectal carcinoma cell line, HCT-116, and the normal human fibroblast, IMR90. Protein adjusted IC50's were also determined in HCT-116. Results of such viability assays are presented in Table 2 (HCT-116 (viability/protein adjusted) and IMR-90). IC50's (μM, non-protein adjusted) for the viability assay against HCT-116 cells are shown for further compounds of the invention in Table 4.
(§9) HCT-116 or IMR90 cells were recovered from sub-confluent plates by trypsinization and 1,000 or 4,000 cells, respectively, were plated in 24-well dishes and incubated overnight at 37° C., 5% CO2. HCT-116 cells were cultured in RPMI-1640, 10% FCS, and IMR90 cells were cultured in Minimum Essential Medium-alpha, 10% FCS. After overnight incubation to allow adherence, the media was aspirated from each well and replaced with media containing a test compound at a concentration from 0 to 250 nM, spanning a total of 7 doses. The plates were returned to the incubator and cultured for an additional 72 hours (3 days). […] After 72-hours incubation with the test compound, the cells were washed twice with 1×PBS, taking special care to remove all residual buffer.
(§10) A 5 μM Calcein AM solution was prepared by dissolving a 50 μg aliquot of Calcein (Molecular Probes catalog #C3100) in 50 μl DMSO. After the Calcein had completely dissolved (10 minutes at room temperature), it was diluted into 10 ml PBS. Calcein/PBS (0.5 ml) was added to each well. The plates were incubated for 75 minutes at 37° C. (protected from light) and the fluorescent signal was read on a fluorescent plate reader (excitation 485/20 and emission 530/25).

[4] = tested on: adriamycin resistant cell line (ADR-res); experiment: NCI panel, adriamycin resistant cell line, SRB assay; type: cell-based; details: Homo sapiens, 48 h
Source text: as §4, §5, §6

HCT-116 cells [5] = experiment: Calcein AM viability assay, HCT-116; type: cell-based; details: Homo sapiens
Procedure: as §7, §8, §9, §10

HCT-116 cells [6] = experiment: Clonogenic survival assay with HCT-116 cells; type: cell-based; details: Homo sapiens
Procedure: This assay was used to determine the concentration of a compound that results in irreversible loss of viability after a specified period of exposure. Essentially, cells are exposed to compound for a period of […], and are then transferred to compound-free growth medium. After continued incubation in the compound-free medium for a number of days, the number of colonies recovered is counted as an estimate of the number of surviving cells.
Media (RPMI-1640, 10% FCS, pen/strep) was pre-warmed to 37° C. in a water bath. Cells were incubated and grown at 37° C., 5% CO2. Cells were recovered by trypsinization from sub-confluent plates and counted using a hemocytometer. 1×10^4 cells were plated in 25 mls of media in a 15 cm tissue culture dish. […] were set up for each test compound, and were incubated overnight at 37° C. The compound was diluted into media at 7 concentrations and the media on the cells was replaced with that containing the test compound. Two plates were set up for each concentration of the compound to be tested, as well as two control plates without compound. Plates were incubated as above for […], media was removed and replaced with fresh media, and the plates were incubated an additional 7 days and washed with PBS. Colonies were stained with crystal violet solution (0.4% crystal violet, 20% ethanol) for 5 minutes, washed twice with distilled water, and counted.

CEM/C2 = experiment: SRB cytotoxicity, camptothecin resistant cells; type: cell-based, human
Procedure: as §1
(§11) The Camptothecin resistant CEM/C2 cells were derived from the T lymphoblastoid leukemia cell line CCRF/CEM by selection in the presence of Camptothecin in vitro (Kapoor et al., 1995. Oncology Research 7; 83-95, ATCC).
(§12) The effects of A37 and B16 were evaluated in the CCRF/CEM and CEM/C2 cells using the same SRB assay as described above, with 72-hour drug exposure.

CEM = experiment: SRB cytotoxicity, CEM parental cells; type: cell-based; details: Homo sapiens, CCRF-CEM, 72 h
Procedure: as §1, §11, §12

1A9 = experiment: SRB cytotoxicity, 1A9 parental cells; type: cell-based; details: Homo sapiens, 72 h
Procedure: as §1
(§13) The tubulin mutated, paclitaxel-resistant human ovarian carcinoma cell line 1A9-PTX10 and its parental paclitaxel-sensitive cell line 1A9 were derived from the A2780 human ovarian carcinoma cell line (J Biol Chem (1997) 272, 17118-17124).

NCI-Adr resistant = experiment: SRB cytotoxicity, P-glycoprotein expressing cells with and without verapamil; type: cell-based; details: for IC50: Homo sapiens, NCI/ADR-RES, 72 h, SRB
Procedure: as §1

1A9-PTX10 = experiment: SRB cytotoxicity, tubulin mutated paclitaxel-resistant cells; type: cell-based, human
Procedure: as §1, §13

A129 cp80 = experiment: SRB cytotoxicity, cisplatin resistant cells; type: cell-based, human
A129 = experiment: SRB cytotoxicity, A129 parental cells; type: cell-based, human; details: 72 h
Procedure: as §1
The parental non-mutated cell line A129 was used as a control.

With CN1CC[C@H](c2c(O)cc(O)c3c(=O)cc(-c4ccccc4Cl)oc23)[C@H](O)C1 [Flavopiridol, reference compound] the IC50 (CDKs) was ~650 nM and 650 nM.

With O=C1c2c(O)ccc(O)c2C(=O)c2c(NCCNCCO)ccc(NCCNCCO)c21 [Mitoxanthrone, reference compound] the IC50 (HT29) was 1230 nM, the “RR (relative resistance) HT29/mit vs HT29” value (HT29/mit) was 153.1 and the IC50 (HT29/mit; Homo sapiens, HT-29, 72 h, SRB) was 188000 nM.

CC(C)N1CCN(CCOc2ccc(-c3[nH]nc4c3C(=O)c3c(NC(=O)NN5CCOCC5)cccc3-4)cc2)CC1 [E] was tested, and the IC50 [1] was under 10000 nM, the IC50 [2] was under 100 nM and the IC50 [3] was under 100 nM. For the same compound, the IC50 [4] was under 1000 nM, the IC50 (HCT-116 cells [5]; HCT-116, 72 h, Calcein AM, 72 h, read-out: HCT-116 IC50 Viability) was under 100 nM and the IC50 (HCT-116 cells [5]; HCT-116, plus 1 mg/ml alpha acidic glycoprotein and 45 mg/ml human serum albumin, read-out: HCT-116 IC50 Protein adjusted) was under 1000 nM. It also gave an IC50 (HCT-116 cells [6]; 24 h exposure, read-out: HCT-116 IC50 Clonogenic 24 h) of under 100 nM and an IC50 (HCT-116 cells [6]; 72 h exposure, read-out: HCT-116 IC50 Clonogenic 72 h) of under 100 nM.

With CC[C@@]1(O)C(=O)OCc2c1cc1n(c2=O)Cc2cc3ccccc3nc2-1 [Camptothecin, reference compound] the “RR (relative resistance) CEM/C2 vs CEM” value (CEM/C2) was 1378, the IC50 (CEM/C2; Homo sapiens, CEM/C2, 72 h, SRB) was 4820 nM and the IC50 (CEM) was 3.5 nM.

In the case of CC(=O)O[C@H]1C(=O)[C@@]2(C)[C@H]([C@H](OC(=O)c3ccccc3)[C@]3(O)C[C@H](OC(=O)[C@H](O)[C@@H](NC(=O)c4ccccc4)c4ccccc4)C(C)=C1C3(C)C)[C@]1(OC(C)=O)CO[C@@H]1C[C@@H]2O [Paclitaxel, reference compound], the IC50 (1A9) is reported as 4 nM, the IC50 (NCI-Adr resistant; verapamil 12.5 μg/ml) is reported as 39 nM and the IC50 (NCI-Adr resistant; without verapamil) is reported as 3960 nM. For the same compound, the “RR (relative resistance) NCI-Adr resistant −/+ verapamil” value (NCI-Adr resistant; ratio of mean IC50) was 101.5, the IC50 (1A9-PTX10; Homo sapiens, 1A9/ptx-10, 72 h, SRB) was 235 nM and the “RR (relative resistance) 1A9-PTX10 vs 1A9” value (1A9-PTX10; ratio of mean IC50 resistant/sensitive) was 59.

For N.N.[Cl][Pt][Cl] [Cisplatin, cis-diamminedichloroplatinum (II), reference compound], the “RR (relative resistance) A129 cp80 vs A129” value (A129 cp80) was 51.6, the IC50 (A129 cp80; 72 h, SRB) was 16700 nM and the IC50 (A129) was 324 nM.

Reference: patent US20080146555A1, “Uses of Kinase Inhibitors and Compositions Thereof” (GPC Biotech, Inc, priority 2004, published 2008)
